Experimental data: ChEMBL document CHEMBL3988442, “University of Dundee, Small-Polar-MMV Screening Library” (2021)
Values joined by “and” are separate entries in the source; they are usually repeats but may differ in a detail not shown here. Equal entries are not always repeated.

How the values were obtained:
[1] = target: T1, Ubiquitin-activating enzyme e1, putative (Leishmania donovani (strain BPK282A1), UniProt E9BSI1); test: Leishmania donovani Ubiquitin Activating Enzyme (LdE1); assay type: functional
T1 sequence (E9BSI1 whole entry): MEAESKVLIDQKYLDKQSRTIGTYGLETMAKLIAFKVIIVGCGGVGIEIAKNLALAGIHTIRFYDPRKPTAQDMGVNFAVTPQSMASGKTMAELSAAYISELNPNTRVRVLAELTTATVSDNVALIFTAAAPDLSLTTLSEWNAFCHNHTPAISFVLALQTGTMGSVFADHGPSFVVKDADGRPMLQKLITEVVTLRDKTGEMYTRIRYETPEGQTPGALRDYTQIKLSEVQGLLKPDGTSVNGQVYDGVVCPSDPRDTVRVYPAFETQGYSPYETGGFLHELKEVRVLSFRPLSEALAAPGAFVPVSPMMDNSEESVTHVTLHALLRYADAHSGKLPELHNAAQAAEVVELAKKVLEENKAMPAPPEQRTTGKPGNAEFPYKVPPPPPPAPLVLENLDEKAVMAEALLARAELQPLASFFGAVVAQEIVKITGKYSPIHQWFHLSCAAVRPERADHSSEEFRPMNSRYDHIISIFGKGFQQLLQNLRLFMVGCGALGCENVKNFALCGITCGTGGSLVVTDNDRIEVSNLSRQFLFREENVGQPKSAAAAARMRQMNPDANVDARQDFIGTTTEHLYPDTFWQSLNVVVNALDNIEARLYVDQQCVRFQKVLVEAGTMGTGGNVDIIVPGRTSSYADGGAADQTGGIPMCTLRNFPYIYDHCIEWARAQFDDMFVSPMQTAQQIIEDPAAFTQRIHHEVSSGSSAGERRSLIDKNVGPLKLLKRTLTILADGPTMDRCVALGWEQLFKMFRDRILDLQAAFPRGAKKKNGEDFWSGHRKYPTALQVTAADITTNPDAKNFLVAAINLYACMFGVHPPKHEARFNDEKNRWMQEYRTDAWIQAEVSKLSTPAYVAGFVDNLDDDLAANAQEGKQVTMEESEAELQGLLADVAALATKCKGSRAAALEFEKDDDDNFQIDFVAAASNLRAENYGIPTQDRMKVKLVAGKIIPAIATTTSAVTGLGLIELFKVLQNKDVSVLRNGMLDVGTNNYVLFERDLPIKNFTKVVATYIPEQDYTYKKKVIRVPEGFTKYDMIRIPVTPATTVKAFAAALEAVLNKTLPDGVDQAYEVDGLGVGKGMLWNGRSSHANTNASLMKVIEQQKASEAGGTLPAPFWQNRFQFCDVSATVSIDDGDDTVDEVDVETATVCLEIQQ

[2] = target: T2, Histidine--tRNA ligase (Leishmania infantum, UniProt A4I591); test: Leishmania infantum Histidine tRNA synthetase (LdHisRS); assay type: functional
T2 sequence (A4I591 whole entry): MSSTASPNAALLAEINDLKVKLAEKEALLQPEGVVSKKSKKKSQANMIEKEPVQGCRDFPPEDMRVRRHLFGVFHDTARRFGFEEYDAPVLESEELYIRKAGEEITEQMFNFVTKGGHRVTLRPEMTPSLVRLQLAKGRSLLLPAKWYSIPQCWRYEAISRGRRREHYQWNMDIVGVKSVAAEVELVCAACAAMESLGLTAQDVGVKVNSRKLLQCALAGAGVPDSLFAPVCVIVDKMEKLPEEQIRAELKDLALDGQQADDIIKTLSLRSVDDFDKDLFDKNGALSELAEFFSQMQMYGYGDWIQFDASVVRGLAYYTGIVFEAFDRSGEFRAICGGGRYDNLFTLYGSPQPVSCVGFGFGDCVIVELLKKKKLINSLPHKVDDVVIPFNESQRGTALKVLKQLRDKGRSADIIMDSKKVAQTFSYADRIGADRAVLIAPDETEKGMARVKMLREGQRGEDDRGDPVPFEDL

[3] = test system: Leishmania donovani; test: Leishmania intramacrophage assay; assay type: functional, organism-based; details: Leishmania donovani
[4] = target: Lysine--tRNA ligase (Plasmodium falciparum (isolate 3D7), UniProt Q8IDJ8); test: Pf-KRS-1 (Lysyl-RNA Synthetase-1, KRS-1, cytosolic KRS) from Plasmodium falciparum. Inhibitor assay, 384 well plate, luminescence read.; assay type: functional
Sequence of Lysine--tRNA ligase (Q8IDJ8 whole entry): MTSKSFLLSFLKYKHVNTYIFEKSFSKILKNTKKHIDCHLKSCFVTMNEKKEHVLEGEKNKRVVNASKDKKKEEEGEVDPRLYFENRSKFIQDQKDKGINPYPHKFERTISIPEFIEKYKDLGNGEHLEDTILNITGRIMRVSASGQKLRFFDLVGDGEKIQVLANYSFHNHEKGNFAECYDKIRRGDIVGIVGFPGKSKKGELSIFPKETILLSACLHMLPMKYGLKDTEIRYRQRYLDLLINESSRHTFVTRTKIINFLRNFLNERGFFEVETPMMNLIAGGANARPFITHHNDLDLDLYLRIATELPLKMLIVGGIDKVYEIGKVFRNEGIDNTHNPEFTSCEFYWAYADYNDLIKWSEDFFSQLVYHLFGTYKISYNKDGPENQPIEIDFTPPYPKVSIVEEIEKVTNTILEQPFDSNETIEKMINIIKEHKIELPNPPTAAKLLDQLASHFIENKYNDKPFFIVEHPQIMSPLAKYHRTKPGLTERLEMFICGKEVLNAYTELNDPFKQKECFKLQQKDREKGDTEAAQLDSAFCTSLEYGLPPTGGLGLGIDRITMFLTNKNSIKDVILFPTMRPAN

[5] = target: ClpP1P2 (Mycobacterium tuberculosis (strain ATCC 25618 / H37Rv), UniProt P9WPC3+P9WPC5); test: in vitro assay to detect presence of AMC directly proportional to the activity of ClpP1P2. GHDDI collaboration.; assay type: functional
Sequence of ClpP1P2 (P9WPC5 whole entry): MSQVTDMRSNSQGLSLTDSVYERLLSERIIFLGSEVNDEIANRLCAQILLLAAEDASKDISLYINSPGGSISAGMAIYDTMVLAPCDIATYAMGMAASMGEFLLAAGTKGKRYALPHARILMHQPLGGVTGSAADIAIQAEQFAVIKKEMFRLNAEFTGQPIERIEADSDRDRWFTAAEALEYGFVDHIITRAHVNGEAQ
Sequence of ClpP1P2 (P9WPC3 whole entry): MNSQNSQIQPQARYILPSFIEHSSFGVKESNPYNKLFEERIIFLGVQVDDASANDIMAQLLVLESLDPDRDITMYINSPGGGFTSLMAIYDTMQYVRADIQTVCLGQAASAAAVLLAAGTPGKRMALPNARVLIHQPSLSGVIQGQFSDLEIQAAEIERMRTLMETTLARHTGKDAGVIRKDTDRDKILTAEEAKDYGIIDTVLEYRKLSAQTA

[6] = target: Tryptophan--tRNA ligase (Mycobacterium tuberculosis (strain ATCC 25618 / H37Rv), UniProt P9WFT3); test: Biochemical assay for Mt-TrpRS; assay type: functional
Sequence of Tryptophan--tRNA ligase (P9WFT3 whole entry): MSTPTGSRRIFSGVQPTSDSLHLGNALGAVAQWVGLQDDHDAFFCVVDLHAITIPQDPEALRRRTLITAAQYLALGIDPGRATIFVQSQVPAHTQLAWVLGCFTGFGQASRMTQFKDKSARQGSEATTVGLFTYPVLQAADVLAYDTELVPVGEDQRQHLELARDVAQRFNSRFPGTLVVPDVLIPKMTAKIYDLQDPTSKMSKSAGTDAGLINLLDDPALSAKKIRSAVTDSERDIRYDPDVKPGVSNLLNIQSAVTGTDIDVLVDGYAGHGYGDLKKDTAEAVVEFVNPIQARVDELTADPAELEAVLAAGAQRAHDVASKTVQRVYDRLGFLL

`COCc1nc2cc(NCc3ccc(CO)o3)ccc2o1` was tested, and the IC50 [1] was greater than 100 µM and the IC50 [2] was 86.1 µM and > 100 µM.
`Cn1nc2c(cc1=O)CN(Cc1nc(C3CC3)no1)CC2` was tested, and the IC50 [1] was greater than 100 µM and the IC50 [2] was 23.8 µM and 20.7 µM.
In the case of `CCCN(C(=O)c1cnccn1)c1nc2c(s1)CCc1c-2cnn1C`, the IC50 [1] is reported as greater than 100 µM and the IC50 [2] is reported as 60.2 µM and 72.5 µM.
Work on `CC(NC(=O)NCCNc1cnccn1)c1cccs1` (configuration not stated) yielded an IC50 [3] greater than 50.1 µM and an IC50 [1] greater than 100 µM.
With `Cn1nc2c(cc1=O)CN(Cc1coc(-c3cccc(F)c3)n1)CC2` the IC50 [1] was greater than 100 µM and the IC50 [2] was 17 µM and 14.3 µM.
In the case of `COCc1nc2cc(NCc3scnc3C)ccc2o1`, the IC50 [1] is reported as greater than 100 µM and the IC50 [2] is reported as 77.5 µM and 90.5 µM.
`CCCN(C(=O)c1cnc(C)cn1)c1nc2c(s1)CCc1c-2cnn1C` was tested, and the IC50 [4] was greater than 50.1 µM, the IC50 [1] was greater than 100 µM and the IC50 [2] was 43.9 µM and 33.5 µM.
`CCCN(C(=O)c1ccncc1)c1nc2c(s1)CCc1c-2cnn1C` was tested, and the IC50 [4] was greater than 50.1 µM, the IC50 [1] was greater than 100 µM and the IC50 [2] was 20.6 µM and 17 µM.
For `CN(C(=O)c1ccccn1)c1nc2c(s1)CCc1c-2cnn1C`, the IC50 [1] was greater than 100 µM and the IC50 [2] was 30.7 µM and 23.3 µM.
With `Cn1nc2c(cc1=O)CN(Cc1nnc(-c3ccc(F)cc3)o1)CC2` the IC50 [1] was greater than 100 µM and the IC50 [2] was 83.1 µM and 70.4 µM.
Compound `Cc1nc(C)n(CC2CCCN2Cc2ncc(-c3ccccc3)o2)n1` (configuration not stated) has an IC50 [1] greater than 100 µM and an IC50 [5] greater than 100 µM.
`Cc1ccc(-c2nc(CN3CCc4nn(C)c(=O)cc4C3)no2)cc1` was tested, and the IC50 [1] was greater than 100 µM and the IC50 [2] was 72.7 µM and 85.3 µM.
`CNS(=O)(=O)Cc1ccc(CNC(=O)Nc2cn[nH]c2)cc1` was tested, and the IC50 [4] was greater than 50.1 µM and the IC50 [1] was greater than 100 µM.
In the case of `COCc1nc2cc(NCc3sc(C)nc3C)ccc2o1`, the IC50 [4] is reported as greater than 50.1 µM, the IC50 [1] is reported as greater than 100 µM and the IC50 [2] is reported as 15.1 µM and 19.3 µM.
`CCCN(C(=O)c1cccnc1)c1nc2c(s1)CCc1c-2cnn1C` was tested, and the IC50 [4] was greater than 50.1 µM, the IC50 [1] was greater than 100 µM and the IC50 [2] was 16.8 µM and 13.1 µM.
For `CCCN(C(=O)COC)c1nc2c(s1)CCc1c-2cnn1C`, the IC50 [4] was greater than 50.1 µM, the IC50 [1] was greater than 100 µM and the IC50 [2] was 7.02 µM and 8.63 µM.
`COCc1nc2cc(NCc3nc(C)cs3)ccc2o1` was tested, and the IC50 [4] was greater than 50.1 µM, the IC50 [1] was greater than 100 µM and the IC50 [2] was 24.1 µM and 33.1 µM.
For `Cn1nc2c(cc1=O)CN(Cc1coc(-c3ccc(F)cc3)n1)CC2`, the IC50 [1] was greater than 100 µM and the IC50 [2] was 16.5 µM and 18.8 µM.
`Cc1ccc(-c2nnc(CN3CCc4nn(C)c(=O)cc4C3)o2)cc1` was tested, and the IC50 [1] was greater than 100 µM and the IC50 [2] was 10.5 µM and 12.1 µM.
With `NC(=O)c1ccc(CNC(=O)Nc2cn[nH]c2)cc1` the IC50 [1] was greater than 100 µM and the IC50 [6] was greater than 195 µM.
`CC(C)N1CCC(Cc2cc(-c3ccccc3C(=O)O)ncn2)CC1` gave an IC50 [1] greater than 100 µM.
Work on `COCCN(C(=O)c1cnccn1)c1nc2c(s1)CCc1c-2cnn1C` yielded an IC50 [1] greater than 100 µM and an IC50 [2] greater than 100 µM.
With `Cc1nc(CN2CCCN(C(=O)C(C)OCC3CC3)CC2)cs1` (configuration not stated) the IC50 [1] was greater than 100 µM.
In the case of `CC(C)n1nc2c(cc1=O)CN(Cc1nnc(C3CC3)o1)CC2`, the IC50 [1] is reported as greater than 100 µM.
For `CC[C@@H]1N(CC2CCC2)CCC[C@]12CCC(=O)N2Cc1ccncc1`, the IC50 [1] was greater than 100 µM.
In the case of `CC(Cn1cccn1)NCc1nc(-c2ccccn2)no1` (configuration not stated), the IC50 [1] is reported as greater than 100 µM.
For `CC(C)C(NC(=O)NCCNc1ccccn1)c1cccs1` (configuration not stated), the IC50 [1] was greater than 100 µM.
`CC(Cn1cccn1)NCc1nc(-c2ccccc2Cl)no1` (configuration not stated) was tested, and the IC50 [1] was greater than 100 µM.
`CC(Cn1cccn1)NCc1nc(-c2ccsc2)no1` (configuration not stated) showed an IC50 [1] greater than 100 µM.
`CCOCC(O)CN1CCN(C(=O)c2ccc(N(C)C)nn2)CC1` (configuration not stated) was tested, and the IC50 [1] was greater than 100 µM.
In the case of `COCc1nc2cc(NCc3cc[nH]n3)ccc2o1`, the IC50 [1] is reported as greater than 100 µM and the IC50 [2] is reported as greater than 100 µM.
In the case of `O=C(CCNC(=O)C1CCCC1)NCc1cccnc1-n1cncn1`, the IC50 [1] is reported as greater than 100 µM.
`COc1cc(CNCc2ccnc(N3CCCCC3)c2)cc(OC)c1` gave an IC50 [1] greater than 100 µM.
`CC(C)(C)c1cnc(CN2CCC[C@H]2CO)o1` gave an IC50 [1] greater than 100 µM.
`CC(C)N1CCC(Cc2cncc(-c3cccc(C(=O)O)c3)n2)C1` (configuration not stated) gave an IC50 [1] greater than 100 µM and an IC50 [6] greater than 195 µM.
`COCc1nc2cc(NCc3ncc[nH]3)ccc2o1` was tested, and the IC50 [1] was greater than 100 µM.
For `Cc1nc(C)n(CC2CCCCN2Cc2nc3ccccc3o2)n1` (configuration not stated), the IC50 [1] was greater than 100 µM.
Work on `COc1ccc(-c2noc(CNC(C)Cn3cccn3)n2)c(OC)c1` (configuration not stated) yielded an IC50 [1] greater than 100 µM.
`CC(NC(=O)NCCNc1ccccn1)c1cccs1` (configuration not stated) gave an IC50 [1] greater than 100 µM.
For `Cn1nc2c(cc1=O)CN(Cc1nnc(-c3ccco3)o1)CC2`, the IC50 [1] was greater than 100 µM and the IC50 [2] was 44 µM and 59.9 µM.
`O=C(CCC1CCCO1)NCc1ccccc1Cn1cncn1` (configuration not stated) was tested, and the IC50 [1] was greater than 100 µM.
In the case of `Cc1ncc(C(=O)NCCNc2ncccc2C#N)s1`, the IC50 [1] is reported as greater than 100 µM.
